Experimental findings from patent US3945994A, “Novel acid compounds” (Gist-Brocades N.V., priority 1973, dated 1976) are described below.

Values after ≈ are worked out from the molar mass of the structure shown.

By MIC is commonly meant the lowest concentration that inhibits growth of the organism. Read a low MIC as greater potency.

Common to all, as to type: cell-based
Experiment [1] relates to Salmonella typhimurium R 127. Particulars: Salmonella enterica, agar serial dilution, 24 hours at 37°C.
In experiment [2] the test system is Pseudomonas aeruginosa 2396. Particulars: agar serial dilution, 24 hours at 37°C.
In another experiment the test system is Proteus mirabilis A 1200. The following applies: A1200, agar serial dilution, 24 hours at 37°C.
The test system of a further experiment is Proteus morganii 2241. The following applies: Morganella morganii, agar serial dilution, 24 hours at 37°C.
Experiment [3] relates to Bacillus subtilis ATCC 6633. The following applies: ATCC6633, agar serial dilution, 24 hours at 37°C.
In experiment [4] the test system is Staphylococcus aureus A 2001. Particulars: A2001, agar serial dilution, 24 hours at 37°C.
The test system of experiment [5] is Streptococcus haemolyticus A 266. The following applies: A266, agar serial dilution, 24 hours at 37°C.
Another experiment deals with Escherichia coli U 20. The following applies: U20, agar serial dilution, 24 hours at 37°C.
The test system of experiment [6] is Staphylococcus aureus A 2000. The following applies: A2000, agar serial dilution, 24 hours at 37°C.
For experiment [7], the system named is Staphylococcus aureus A 321. Particulars: A321, agar serial dilution, 24 hours at 37°C.
In experiment [8] the test system is Klebsiella pneumoniae A 809. The following applies: A809, agar serial dilution, 24 hours at 37°C.
The subject of experiment [9] is Pasteurella multocida A 723. The following applies: A723, agar serial dilution, 24 hours at 37°C.
For experiment [10], the system named is Diplococcus pneumoniae L 54. Particulars: Streptococcus pneumoniae, L54; agar serial dilution, 24 hours at 37°C.
In experiment [11] the test system is Streptococcus faecalis L 80. Particulars: Enterococcus faecalis, L80; agar serial dilution, 24 hours at 37°C.
Experiment [12] concerns Pseudomonas aeruginosa H 10. Particulars: H10, agar serial dilution, 24 hours at 37°C.
Experiment [13] deals with Staphylococcus aureus A 355'. Particulars: agar serial dilution, 24 hours at 37°C.
Experiment [14] deals with Pseudomonas aeruginosa Wyeth A 1058. Particulars: WYETHA1058, agar serial dilution, 24 hours at 37°C.
The subject of the next experiment is Salmonella dublin P 43. The following applies: Salmonella enterica, P43; agar serial dilution, 24 hours at 37°C.
The next experiment concerns Proteus rettgeri A 821. Particulars: Providencia rettgeri, A821; agar serial dilution, 24 hours at 37°C.
For the next experiment, the system named is Proteus mirabilis H 3. The following applies: H3, agar serial dilution, 24 hours at 37°C.

Regarding `CC1(C)S[C@@H]2[C@H](NC(=O)[C@H](NC(=O)NS(=O)(=O)Nc3ccccc3)c3ccccc3)C(=O)N2[C@H]1C(=O)O` [VII, D-6-[α-{3-(phenylaminosulfonyl)-ureido}-benzylcarbonamido]-penicillanic acid], the MIC in [1] came to 25 mg/L (≈ 45.7 µM); in experiment [2], 25 mg/L (≈ 45.7 µM); in the experiment with Proteus mirabilis A 1200 it was 3 mg/L (≈ 5.48 µM); against Proteus morganii 2241, 25 mg/L (≈ 45.7 µM); in [3], 1 mg/L (≈ 1.83 µM); in [4] it was 3 mg/L (≈ 5.48 µM). In addition, the minimal inhibitory concentration (MIC) in [5] worked out at 1 mg/L (≈ 1.83 µM); with Escherichia coli U 20 it was 12.5 mg/L (≈ 22.8 µM); in [6] it was 12.5 mg/L (≈ 22.8 µM); in experiment [7] it was 1 mg/L (≈ 1.83 µM); in experiment [8], 25 mg/L (≈ 45.7 µM); in experiment [9] it was 25 mg/L (≈ 45.7 µM). Moreover, the minimal inhibitory concentration (MIC) in [10] was determined as 1 mg/L (≈ 1.83 µM); in experiment [11], 25 mg/L (≈ 45.7 µM); in experiment [12], 50 mg/L (≈ 91.3 µM); in [13] it was 25 mg/L (≈ 45.7 µM); in [14] it was 50 mg/L (≈ 91.3 µM); against Salmonella dublin P 43, 12.5 mg/L (≈ 22.8 µM). Also, the MIC against Proteus rettgeri A 821 was 1.5 mg/L (≈ 2.74 µM); against Proteus mirabilis H 3 it was 3 mg/L (≈ 5.48 µM).

On to `CCOC(=O)CNS(=O)(=O)NC(=O)N[C@@H](C(=O)N[C@@H]1C(=O)N2[C@@H]1SC(C)(C)[C@@H]2C(=O)O)c1ccccc1` [X, D-6-[α-{3-(ethoxycarbonylmethylaminosulfonyl)-ureido}-benzylcarbonamido]-penicillanic acid], for which the MIC was found to be 50 mg/L (≈ 89.7 µM) in [1]; 100 mg/L (≈ 179 µM) in [2]; 3 mg/L (≈ 5.38 µM) with Proteus mirabilis A 1200; 50 mg/L (≈ 89.7 µM) with Proteus morganii 2241; 1 mg/L (≈ 1.79 µM) in [3]; 12.5 mg/L (≈ 22.4 µM) in experiment [4]. Moreover, the MIC in [5] was 0.25 mg/L (≈ 0.448 µM); in the experiment with Escherichia coli U 20 it was 25 mg/L (≈ 44.8 µM); in experiment [6] it was 12.5 mg/L (≈ 22.4 µM); in experiment [7], 3 mg/L (≈ 5.38 µM); in experiment [8], 100 mg/L (≈ 179 µM); in [9], 0.25 mg/L (≈ 0.448 µM). For the same compound, the minimal inhibitory concentration (MIC) in experiment [10] was 1.5 mg/L (≈ 2.69 µM); in [11], 25 mg/L (≈ 44.8 µM); in experiment [12], > 100 mg/L; in experiment [13] it was 25 mg/L (≈ 44.8 µM); in [14] it was 25 mg/L (≈ 44.8 µM); in the experiment with Salmonella dublin P 43, 25 mg/L (≈ 44.8 µM). Moreover, the minimum inhibitory concentration (MIC) in the experiment with Proteus rettgeri A 821 was < 0.75 mg/L; against Proteus mirabilis H 3, 1.5 mg/L (≈ 2.69 µM).

`Cc1noc(NS(=O)(=O)NC(=O)N[C@@H](C(=O)N[C@@H]2C(=O)N3[C@@H]2SC(C)(C)[C@@H]3C(=O)O)c2ccccc2)c1C` [XIII, D-6-[α-{3-(3,4-dimethylisoxazol-5-yl-aminosulfonyl)ureido}-benzylcarbonamido]-penicillanic acid]: the MIC in experiment [1] came out at 50 mg/L (≈ 88.2 µM); in experiment [2], 50 mg/L (≈ 88.2 µM); in the experiment on Proteus mirabilis A 1200, 6 mg/L (≈ 10.6 µM); in the experiment on Proteus morganii 2241, 100 mg/L (≈ 176 µM); in experiment [3], 0.5 mg/L (≈ 0.882 µM); in experiment [4], 3 mg/L (≈ 5.29 µM). Further, the minimal inhibitory concentration (MIC) worked out at 0.12 mg/L (≈ 0.212 µM) in [5]; 12.5 mg/L (≈ 22.1 µM) in the experiment on Escherichia coli U 20; 12.5 mg/L (≈ 22.1 µM) in experiment [6]; 1 mg/L (≈ 1.76 µM) in experiment [7]; 100 mg/L (≈ 176 µM) in [8]; 0.12 mg/L (≈ 0.212 µM) in [9]. For the same compound, the minimal inhibitory concentration (MIC) was found to be 1.5 mg/L (≈ 2.65 µM) in experiment [10]; 12.5 mg/L (≈ 22.1 µM) in experiment [11]; 100 mg/L (≈ 176 µM) in experiment [12]; 25 mg/L (≈ 44.1 µM) in [13]; 25 mg/L (≈ 44.1 µM) in experiment [14]; 25 mg/L (≈ 44.1 µM) against Salmonella dublin P 43. For the same compound, the minimal inhibitory concentration (MIC) was found to be 3 mg/L (≈ 5.29 µM) with Proteus rettgeri A 821 and 12.5 mg/L (≈ 22.1 µM) in the experiment with Proteus mirabilis H 3.

As to `CCOC(=O)NS(=O)(=O)N[C@@H](C(=O)N[C@@H]1C(=O)N2[C@@H]1SC(C)(C)[C@@H]2C(=O)O)c1ccccc1` [XIX, D-6-[α-(ethoxycarbonylaminosulfonylamino)-benzylcarbonamido]-penicillanic acid], the minimal inhibitory concentration (MIC) in experiment [1] was 100 mg/L (≈ 200 µM); in experiment [2] it was 100 mg/L (≈ 200 µM); against Proteus mirabilis A 1200, 25 mg/L (≈ 49.9 µM); with Proteus morganii 2241, > 100 mg/L; in experiment [3] it was 1 mg/L (≈ 2 µM); in experiment [4] it was 6 mg/L (≈ 12 µM). For the same compound, the MIC was 0.25 mg/L (≈ 0.499 µM) in experiment [5]; 100 mg/L (≈ 200 µM) with Escherichia coli U 20; 12.5 mg/L (≈ 25 µM) in experiment [6]; 3 mg/L (≈ 5.99 µM) in experiment [7]; > 100 mg/L in [8]; 0.5 mg/L (≈ 0.999 µM) in experiment [9]. For the same compound, the minimum inhibitory concentration (MIC) in experiment [10] was 3 mg/L (≈ 5.99 µM); in experiment [11], 25 mg/L (≈ 49.9 µM); in experiment [12], > 100 mg/L; in experiment [13], 50 mg/L (≈ 99.9 µM); in [14], 50 mg/L (≈ 99.9 µM); with Salmonella dublin P 43 it was 50 mg/L (≈ 99.9 µM). The minimum inhibitory concentration (MIC) in the experiment with Proteus rettgeri A 821 was 3 mg/L (≈ 5.99 µM); against Proteus mirabilis H 3, 25 mg/L (≈ 49.9 µM).
